Data from US20260217652A1, “PHENYL-SUBSTITUTED HETEROARYL COMPOUND AND PHARMACEUTICAL COMPOSITION COMPRISING SAME, PREPARATION METHOD THEREFOR AND USE THEREOF” (SHANGHAI MEIYUE BIOTECH DEVELOPMENT CO., LTD., priority 2023, published 2026).

tested on: not listed separately; assay: In vitro liver microsome stability, mouse; type: in vitro ADME; details: liver microsomes, 0.5 mg/mL microsomes, 1 μM compound, NADPH, 37° C., read-out: Mouse liver microsomes Half-life T1/2
Protocol: (§1) The reference compound used in this experiment was Ketanserin, and the final concentration of microsomes in the experimental system was 0.5 mg/mL. The PBS buffer was a 50 mM K2HPO4 buffer. The concentration of the test compound was 1 μM. The microsomes were added to PBS, and the control/test compounds were respectively added to the corresponding reaction systems, mixed thoroughly, and pre-incubated in a 37° C. water bath for 5 minutes. The reaction was initiated by adding 20 mM NADPH solution under 37° C. water bath conditions (for the No NADPH samples, an equal volume of PBS solution was used as a substitute for the 20 mM NADPH solution). At the reaction time points of 0 min, 10 min, 30 mun, 60 min, and 90 min, 30 μL of reaction samples were taken from each reaction system (for the No NADPH samples, sampling was performed at 0 min and 90 min), and the reaction was immediately terminated by adding 300 μL of the internal standard acetonitrile solution. After centrifugation at 4000 rpm, the supernatant was taken and mixed thoroughly with an equal volume of pure water. The samples at each time point were analyzed by LC-MS/MS (AB Triple Quard 5500) to determine the compound content, and the T1/2 was calculated.

SMILES	half-life at 1 μM
Cc1cnc(-c2cccc([C@@](C)(O)CO)c2F)cc1-n1c(C)cc(OCc2ncc(F)cc2F)c(Cl)c1=O [Compound 35-P1]	> 4.66 h

tested on: not listed separately; assay: In vitro liver microsome stability, human; type: in vitro ADME; details: liver microsomes, 0.5 mg/mL microsomes, 1 μM compound, NADPH, 37° C., read-out: Human liver microsomes Half-life T1/2
Protocol: as §1

SMILES	half-life at 1 μM
Cc1cnc(-c2cccc([C@@](C)(O)CO)c2F)cc1-n1c(C)cc(OCc2ncc(F)cc2F)c(Cl)c1=O [Compound 35-P1]	> 4.66 h

target: T1, p38 MAPK/ATF2 (Homo sapiens, UniProt Q16539); assay: In vitro activity assay of p38 MAPK/ATF2 (HTRF); type: biochemical; details: p38α, Human ATF2 Protein, ATP; 35 min at 20° C.
T1 construct: purchased Carna Biosciences (p38α); Sino Biological (ATF2) 04-152; 11599-H20B
Protocol: The inhibitory effect of the compound on p38a-catalyzed ATF2 was evaluated by the HTRF method. The test compound was dissolved in DMSO to obtain a 10 mM stock solution and stored at −20° C. for future use. The initial concentration of the compound was 10 μM, with 0.25% DMSO, 5-fold serial dilution, 8 concentrations, and duplicate wells. The reaction buffer, consisting of 40 mM Tris pH 7.5, 20 mM MgCl2, 0.1 mg/mL BSA, and 50 μM DTT, was used to prepare 3.5×p38α (MAPK14, Carna Biosciences, 04-152) protein working solution, 3.5×Human ATF2 Protein (Sino Biological, 11599-H20B) working solution, and 3.5×ATP working solution. The reaction was terminated with 10 mM EDTA. The final 14 μL reaction system was performed in a 96-well plate (cisbio, 66PL96025), containing 0.29 ng/μL p38a, […] Human ATF2 Protein, and 25 µM ATP. After reacting at 20° C. for 35 min, the pre-prepared antibody solution (cibio, 63ADK015PEG, Phospho-ATF2 Eu Cryptate antibody, Phospho-ATF2 d2 antibody, diluted 40-fold with Detection buffer) was added to each well and incubated overnight at room temperature. The samples were then measured using a microplate reader (HTRF compatible reader). The concentration-effect curve was fitted using GraphPad Prism 8 software, and the compound concentration resulting in 50% inhibition, IC50, was calculated.

SMILES	IC50
Cc1cnc(-c2cccc(C(=O)N(C)C)c2)c(F)c1-n1c(C)cc(OCc2ncc(F)cc2F)c(Cl)c1=O (single isomer, unassigned) [Compound 32-P1]	3650 nM

target: T2, p38 MAPK/MK5 (Homo sapiens, UniProt Q16539); assay: In vitro activity assay of p38 MAPK/MK5 (Z-LYTE kinase assay kit); type: biochemical; details: active p38α, inactive MK5, Ser/Thr 4; 4-hour reaction at 20° C.
T2 construct: purchased Carna (p38α); Abcam (MK5) 04-152; 217826
Protocol: (§2) The inhibitory effect of the compound on p38 MAPK/MK5 was evaluated using the Z-LYTE kinase assay kit (Thermo, PV3177). The test compound was dissolved in DMSO to obtain a 10 mM stock solution and stored at −20° C. for future use. The initial concentration of the compound was […], with 1% DMSO, 5-fold serial dilution, 8 concentrations, and duplicate wells. […] After a 4-hour reaction at 20° C., Development Reagent A diluted 2048-fold was added to each well, followed by incubation at room temperature for 1 hour. The reaction was terminated by adding 5 µL of stop buffer, and the plate was read using a microplate reader (Ex. 400 nm, Em. 445 nm; Ex. 400 nm, Em. 520 nm). The concentration-effect curve was fitted using GraphPad Prism 8 software, and the compound concentration resulting in 50% inhibition, IC50, was calculated.

T2 sequence (Q16539 whole entry): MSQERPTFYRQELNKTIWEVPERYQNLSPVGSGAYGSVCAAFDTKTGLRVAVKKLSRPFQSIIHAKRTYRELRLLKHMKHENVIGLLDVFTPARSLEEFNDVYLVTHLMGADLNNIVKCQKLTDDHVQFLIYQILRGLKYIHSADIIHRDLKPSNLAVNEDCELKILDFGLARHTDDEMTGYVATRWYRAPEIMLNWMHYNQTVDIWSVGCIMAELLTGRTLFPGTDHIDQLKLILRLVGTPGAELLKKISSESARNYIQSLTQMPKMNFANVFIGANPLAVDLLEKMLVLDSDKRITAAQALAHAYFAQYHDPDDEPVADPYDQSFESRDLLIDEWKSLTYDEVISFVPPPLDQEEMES

SMILES	IC50
Cc1cnc(-c2cccc(C(=O)N(C)C)c2)c(F)c1-n1c(C)cc(OCc2ncc(F)cc2F)c(Cl)c1=O (single isomer, unassigned) [Compound 32-P1]	1650 nM
Cc1cnc(-c2cccc([C@@](C)(O)CO)c2F)cc1-n1c(C)cc(OCc2ncc(F)cc2F)c(Cl)c1=O [Compound 35-P1]	4670 nM

tested on: TNF-α in human PBMC cells; assay: In vitro TNF-α activity assay in human PBMC cell supernatant (LPS, ELISA); type: cell-based; details: Homo sapiens, PBMC, 24 h, LPS 100 ng/mL, read-out: p38 MAPK/TNF-α IC50
Protocol: The inhibitory effect of the compound on TNF-α in the supernatant of human PBMC cells was evaluated using an ELISA detection kit (Beyotime, PI518). The test compound was dissolved in DMSO to obtain a 10 mM stock solution and stored at −20° C. for future use. The initial concentration of the compound was […], followed by 5-fold serial dilution to obtain 6 concentrations. Cells were plated in duplicate, and ELISA was performed in single wells. The final concentration of DMSO was 0.4%. Alternatively, the initial concentration of the compound, dilution factor, number of concentration gradients, and replicates could be adjusted based on the specific screening conditions.
Fresh human peripheral blood mononuclear cells (PBMCs) (Sailybio) were seeded at a density of 2×10^5 cells per well in a 96-well plate (Corning, 3599), with each well containing 100 μL of RPMI-1640 (Gibco #A1049101)+10% FBS (Gibco, 10099141C), and incubated overnight at 37° C. under 5% CO2. Test compounds were added to the 96-well culture plate at a volume of 25 μL per well. After 1 hour, 5 μL of LPS was added to achieve a final concentration of 100 ng/mL. No LPS and compound were added to the negative control wells, and no compound was added to the positive control wells. The mixture was further incubated for 24 hours at 37° C. under 5% CO2. Subsequently, the cell culture supernatant was collected by centrifugation at 500 rcf for 8 minutes. The concentration of TNF-α was measured according to the operation manual of the ELISA kit. The concentration-effect curve was fitted using GraphPad Prism 8 software, and the compound concentration resulting in 50% inhibition, IC50, was calculated.

SMILES	IC50
Cc1cnc(-c2cccc(C(=O)N(C)C)c2)c(F)c1-n1c(C)cc(OCc2ncc(F)cc2F)c(Cl)c1=O (single isomer, unassigned) [Compound 32-P1]	3.21 nM
Cc1cnc(-c2cccc([C@@](C)(O)CO)c2F)cc1-n1c(C)cc(OCc2ncc(F)cc2F)c(Cl)c1=O [Compound 35-P1]	1.9 nM

tested on: not listed separately; assay: In vitro liver microsome stability, rat; type: in vitro ADME; details: liver microsomes, 0.5 mg/mL microsomes, 1 μM compound, NADPH, 37° C., read-out: Rat liver microsomes Half-life T1/2
Protocol: as §1

SMILES	half-life at 1 μM
Cc1cnc(-c2cccc([C@@](C)(O)CO)c2F)cc1-n1c(C)cc(OCc2ncc(F)cc2F)c(Cl)c1=O [Compound 35-P1]	> 4.66 h

target: T3, p38 MAPK/MK2 (Homo sapiens, UniProt Q16539); assay: In vitro activity assay of p38 MAPK/MK2 (Z-LYTE kinase assay kit); type: biochemical; details: active p38α, inactive MK2, Ser/Thr 4; 1-hour reaction at 20° C.
T3 construct: purchased Carna (p38α); Abcam (MK2) 04-152; 79910
Protocol: as §2, with “MAPK/MK2” for “MAPK/MK5”, “1-hour” for “4-hour”, “μL” for “µL”

T3 sequence (Q16539 whole entry): as above
T3 sequence (P49137 whole entry partner): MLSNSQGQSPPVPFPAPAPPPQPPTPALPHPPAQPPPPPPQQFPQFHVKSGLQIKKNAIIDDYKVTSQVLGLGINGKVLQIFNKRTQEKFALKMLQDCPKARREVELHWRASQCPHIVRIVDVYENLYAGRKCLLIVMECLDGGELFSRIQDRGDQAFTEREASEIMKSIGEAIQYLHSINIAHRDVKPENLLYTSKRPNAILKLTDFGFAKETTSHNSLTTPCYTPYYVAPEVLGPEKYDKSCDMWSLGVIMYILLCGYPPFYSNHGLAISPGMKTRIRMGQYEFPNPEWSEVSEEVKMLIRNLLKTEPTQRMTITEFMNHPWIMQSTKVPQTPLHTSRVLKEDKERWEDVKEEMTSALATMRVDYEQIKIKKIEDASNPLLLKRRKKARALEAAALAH

SMILES	IC50
Cc1cnc(-c2cccc(C(=O)N(C)C)c2)c(F)c1-n1c(C)cc(OCc2ncc(F)cc2F)c(Cl)c1=O (single isomer, unassigned) [Compound 32-P1]	0.51 nM
Cc1cnc(-c2cccc([C@@](C)(O)CO)c2F)cc1-n1c(C)cc(OCc2ncc(F)cc2F)c(Cl)c1=O [Compound 35-P1]	1.44 nM

tested on: not listed separately; assay: Pharmacokinetic evaluation in mice; type: in vivo; details: mouse, plasma, intravenous injection group 1 mg/kg, read-out: Area under curve AUC0-24 h
Protocol: The compound was weighed and dissolved in a mixed solvent of DMAC: Solutol: PBS (1:1:8. After intravenous/gastric administration to mice, whole blood ([…]) was collected at 0.083, 0.25, 0.5, 1, 2, 4, 7, and 24 hours. The samples were anticoagulated with EDTA-K2, immediately centrifuged at 4000 rpm for 5 minutes at 4° C., and the supernatant was frozen in a −80° C. refrigerator. Plasma sample processing: The samples were precipitated with an internal standard-containing CH3CN precipitant, followed by centrifugation at 12700 rpm for 10 min. The supernatant was collected and analyzed by LC-MS/MS (AB Triple Quard 5500) to obtain the plasma drug concentration. The parameters were calculated using a non-compartmental model in Winnolin version 8.1.

SMILES	AUC(0-t)
Cc1cnc(-c2cccc(C(=O)N(C)C)c2)c(F)c1-n1c(C)cc(OCc2ncc(F)cc2F)c(Cl)c1=O (single isomer, unassigned) [Compound 32-P1]	842 ng·h/mL

same assay, conditions: mouse, plasma, intravenous injection group 1 mg/kg, read-out: Clearance CL (converted)

SMILES	clearance
Cc1cnc(-c2cccc(C(=O)N(C)C)c2)c(F)c1-n1c(C)cc(OCc2ncc(F)cc2F)c(Cl)c1=O (single isomer, unassigned) [Compound 32-P1]	21.1 mL/min/kg

same assay, conditions: mouse, plasma, intravenous injection group 1 mg/kg, read-out: Half-life T1/2 (converted)

SMILES	half-life
Cc1cnc(-c2cccc(C(=O)N(C)C)c2)c(F)c1-n1c(C)cc(OCc2ncc(F)cc2F)c(Cl)c1=O (single isomer, unassigned) [Compound 32-P1]	0.35 h

same assay, conditions: mouse, plasma, intravenous injection group 1 mg/kg, read-out: Initial concentration C0

SMILES	C0
Cc1cnc(-c2cccc(C(=O)N(C)C)c2)c(F)c1-n1c(C)cc(OCc2ncc(F)cc2F)c(Cl)c1=O (single isomer, unassigned) [Compound 32-P1]	1790 ng/mL

same assay, conditions: mouse, plasma, intravenous injection group 1 mg/kg, read-out: Volume of distribution Vd

SMILES	Vd
Cc1cnc(-c2cccc(C(=O)N(C)C)c2)c(F)c1-n1c(C)cc(OCc2ncc(F)cc2F)c(Cl)c1=O (single isomer, unassigned) [Compound 32-P1]	0.49 L/kg

same assay, conditions: mouse, plasma, po, intragastric administration group 5 mg/kg, read-out: Area under curve AUC0-24 h

SMILES	AUC(0-t)
Cc1cnc(-c2cccc(C(=O)N(C)C)c2)c(F)c1-n1c(C)cc(OCc2ncc(F)cc2F)c(Cl)c1=O (single isomer, unassigned) [Compound 32-P1]	2350 ng·h/mL

same assay, conditions: mouse, plasma, po, intragastric administration group 5 mg/kg, read-out: Bioavailability F %

SMILES	bioavailability
Cc1cnc(-c2cccc(C(=O)N(C)C)c2)c(F)c1-n1c(C)cc(OCc2ncc(F)cc2F)c(Cl)c1=O (single isomer, unassigned) [Compound 32-P1]	57.9%

same assay, conditions: mouse, plasma, po, intragastric administration group 5 mg/kg, read-out: Half-life T1/2 (converted)

SMILES	half-life
Cc1cnc(-c2cccc(C(=O)N(C)C)c2)c(F)c1-n1c(C)cc(OCc2ncc(F)cc2F)c(Cl)c1=O (single isomer, unassigned) [Compound 32-P1]	1.54 h

same assay, conditions: mouse, plasma, po, intragastric administration group 5 mg/kg, read-out: Maximum concentration Cmax

SMILES	Cmax
Cc1cnc(-c2cccc(C(=O)N(C)C)c2)c(F)c1-n1c(C)cc(OCc2ncc(F)cc2F)c(Cl)c1=O (single isomer, unassigned) [Compound 32-P1]	1610 ng/mL
